In assay [1] the test system is uni-nephrectomized Sprague Dawley rats. Nature of the assay: In vivo model of aldosterone mediated renal disease. The conditions noted are these: 10 mg/kg/day x 14 days, oral gavage, aldosterone-infused rats; average of n=8. The protocol: Male uni-nephrectomized Sprague Dawley rats (240-280 g) are housed individually with ad lib house water and rodent 5001 diet for one week. After acclimation, baseline 24 h urine samples are collected and analyzed for total urine protein and creatinine. Animals are randomized via body weight and baseline urine protein into study groups. Baseline serum is taken by tail-clip and analyzed for blood urea nitrogen (BUN), creatinine, and electrolytes. After baseline samples are taken, all rats with the exception of the control group are maintained on a diet containing 6% salt, and drinking water containing 0.3% KCl throughout the study duration. […] Alza mini-pumps to deliver 2.5 μl/h×28 days of d-aldosterone in 0.01% DMSO at 0.75 μg/h, s.c. are implanted in non-control animals (e.g Test Compound group and Vehicle only group) under isoflourane anesthesia. […] Repeat urine samples are collected after 2 and 4 weeks of compound or vehicle alone administration and analyzed for total urine protein and creatinine. At study termination, pharmacokinetic samples are obtained at 8 timepoints (0.5, 1, 2, 3, 6, 8, 12 and 24 h). In addition, hearts and kidneys are removed and fixed in 10% buffered formalin for haematoxylin and eosin (H&E) and Masson's trichrome staining to detect structural damage in cardiac and renal tissues. Serum is taken by cardiac puncture at study termination for additional analysis of serum BUN, creatinine, and electrolytes.

The target of assay [2] is T1, human MR (mineralocorticoid receptor) (Homo sapiens, UniProt P08235).
T1 construct: expressed in transfected cells; host or cells: HEK293 (lysate, '293-MR lysate')
T1 sequence (P08235 1-984): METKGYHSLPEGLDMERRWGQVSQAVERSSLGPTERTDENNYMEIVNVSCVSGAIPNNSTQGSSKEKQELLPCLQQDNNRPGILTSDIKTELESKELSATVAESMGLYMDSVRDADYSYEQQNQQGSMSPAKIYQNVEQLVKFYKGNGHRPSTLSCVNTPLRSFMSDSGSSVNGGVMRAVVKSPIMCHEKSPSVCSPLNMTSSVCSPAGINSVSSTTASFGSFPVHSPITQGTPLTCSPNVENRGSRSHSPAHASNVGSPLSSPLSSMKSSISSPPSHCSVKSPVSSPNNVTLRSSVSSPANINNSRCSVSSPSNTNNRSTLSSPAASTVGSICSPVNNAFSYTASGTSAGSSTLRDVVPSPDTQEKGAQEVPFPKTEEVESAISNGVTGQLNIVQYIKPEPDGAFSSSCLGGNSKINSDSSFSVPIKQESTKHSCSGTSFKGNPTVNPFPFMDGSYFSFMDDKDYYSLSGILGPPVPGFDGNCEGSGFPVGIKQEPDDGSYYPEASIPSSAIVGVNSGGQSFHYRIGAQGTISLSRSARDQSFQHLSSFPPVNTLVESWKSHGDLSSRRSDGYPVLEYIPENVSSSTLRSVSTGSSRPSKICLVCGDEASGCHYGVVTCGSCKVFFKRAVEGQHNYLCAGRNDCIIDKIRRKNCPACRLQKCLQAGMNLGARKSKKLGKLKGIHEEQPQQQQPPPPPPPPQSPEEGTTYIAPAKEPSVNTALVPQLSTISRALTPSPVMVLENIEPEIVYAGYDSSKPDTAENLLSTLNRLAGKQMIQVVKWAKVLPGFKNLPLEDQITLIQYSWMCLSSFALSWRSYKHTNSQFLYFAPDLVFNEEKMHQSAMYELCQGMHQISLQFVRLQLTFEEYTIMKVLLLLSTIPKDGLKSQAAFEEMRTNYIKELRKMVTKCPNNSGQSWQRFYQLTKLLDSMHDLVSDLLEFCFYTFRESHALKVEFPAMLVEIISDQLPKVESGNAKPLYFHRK
Put plainly: Steroid hormone nuclear receptor binding assay (MR binding). The conditions noted are these: HEK293 lysate overexpressing human MR, [3H]-aldosterone; individual values geometric mean of n=2. The procedure: Cell lysates from human embryonic kidney HEK293 cells overexpressing human MR (mineralocorticoid receptor), GR (glucocorticoid receptor), AR (androgen receptor), or PR (progesterone receptor) are used for receptor-ligand competition binding assays to determine Ki values.
Briefly, steroid receptor competition binding assays are run in a buffer containing 20 mM HEPES buffer (pH=7.6), 0.2 mM EDTA, 75 mM NaCl, 1.5 mM MgCl2, 20% glycerol, 20 mM sodium molybdate, 0.2 mM DTT (dithiothreitol), 20 μg/mL aprotinin and 20 μg/mL leupeptin (assay buffer). Typically, steroid receptor binding assays include radio-labeled ligands, such as 0.25 nM [^3H]-aldosterone for MR binding, 0.3 nM [^3H]-dexamethasone for GR binding, 0.36 nM [^3H]-methyltrienolone for AR binding, and 0.29 nM [^3H]-methyltrienolone for PR binding, and either 20 μg 293-MR lysate, 20 μg 293-GR lysate, 22 μg 293-AR lysate, or 40 μg 293-PR lysate per well. Assays are typically run in 96-well format. Competing test compounds are added at various concentrations ranging from about 0.01 nM to 10 μM. […] The binding reactions (140 μL) are incubated overnight at 4° C., then 70 μL of cold charcoal-dextran buffer (containing per 50 mL of assay buffer, 0.75 g of charcoal and 0.25 g of dextran) is added to each reaction. Plates are mixed for 8 minutes on an orbital shaker at 4° C. The plates are then centrifuged at 3,000 rpm at 4° C. for 10 minutes. An aliquot of 120 μL of the binding reaction mixture is then transferred to another 96-well plate and 175 μL of Wallac Optiphase Hisafe 3™ scintillation fluid is added to each well. Plates are sealed and shaken vigorously on an orbital shaker. After an incubation of 2 hours, plates are read in a Wallac Microbeta counter.
The Kd for [^3H]-aldosterone for MR binding, [^3H]-dexamethasone for GR binding, [^3H]-methyltrienolone for AR binding, or [^3H]-methyltrienolone for PR binding, is determined by saturation binding. The IC50 values for compounds are converted to Ki using the Cheng-Prusoff equation.

The target in a further assay is T2, human MR (Homo sapiens, UniProt P08235).
T2 construct: expressed in transfected cells; host or cells: HEK293, transient transfection with a CMV-driven plasmid and a GRE-TK-luciferase reporter
T2 sequence (P08235 1-984): T1 sequence (P08235 1-984)
Nature of the assay: hMR competitive antagonist assay (luciferase reporter, Schild analysis). The format is cell-based. The text has this:
Human embryonic kidney HEK293 cells are transfected with steroid hormone receptor and reporter gene plasmids using a suitable transfection reagent such as Fugene™. Briefly, the reporter plasmid containing two copies of probasin ARE and TK (thymidine kinase) promoter upstream of the luciferase reporter cDNA, is transfected into HEK293 cells with a plasmid constitutively expressing human androgen receptor (AR) using viral CMV (cytomegalovirus) promoter. The reporter plasmid containing two copies of GRE and TK promoter upstream of the luciferase reporter cDNA is transfected with a plasmid constitutively expressing either human glucocorticoid receptor (GR), human mineralocorticoid receptor (MR), or human progesterone receptor (PR) using viral CMV promoter. Cells are transfected in T150 cm flasks in DMEM media with 5% charcoal-stripped Fetal Bovine Serum (FBS). After an overnight incubation, transfected cells are trypsinized, plated in 96 well dishes in DMEM media containing 5% charcoal-stripped FBS, incubated for 4 hours and then exposed to various concentrations of test compounds ranging from about 0.01 nM to 10 μM. […] After 24 hours incubation with test compounds, cells are lysed and luciferase activity is determined using standard techniques.
Human embryonic kidney HEK293 cells are transfected with human MR using the same transfection reagents, plasmids, promoters, reporter constructs, buffers, and procedures as described above for the Nuclear Hormone Receptor Panel Screen.

As to `CN1CCN(n2/c(=N/C#N)[nH]c3cc(/C=C4\c5ccccc5COc5cc(F)ccc54)ccc32)CC1` [Example 8, (E)-N-(5-((E)-3-Fluoro-6H-dibenzo[b,e]oxepin-11-ylidenemethyl)-1-(4-methyl-piperazin-1-yl)-1,3-dihydro-benzoimidazol-2-ylidene)-cyanamide], the “reduced urinary protein excretion compared to vehicle treated animals” value (from here on “reduced urinary protein excretion”) in assay [1] is recorded as roughly 83 mg/day. In addition, the Ki in assay [2] was roughly 0.08 nM. In addition, the Kb at human MR is roughly 1.1 nM.

For `C[C@H](CN1CCOCC1)n1/c(=N/C#N)[nH]c2cc(/C=C3\c4ccc(F)cc4COc4cc(F)ccc43)ccc21` [Example 1, (E)-N—((R)-5-((E)-3,8-Difluoro-6H-dibenzo[b,e]oxepin-11-ylidenemethyl)-1-(1-methyl-2-morpholin-4-yl-ethyl)-1,3-dihydro-benzoimidazol-2-ylidene)-cyanamide], the “reduced urinary protein excretion” value in assay [1] is reported as “about 49 mg/day”. In assay [2], this compound came in with a Ki of roughly 0.79 nM. Moreover, the Kb on human MR was roughly 1.2 nM.

As for `N#C/N=c1\[nH]c2cc(/C=C3/c4ccc(F)cc4OCc4c(F)cccc43)ccc2n1[C@H]1C[C@@H]2COCCN2C1` [Example 23, (E)-N-(5-((E)-3,7-Difluoro-6H-dibenzo[b,e]oxepin-11-ylidenemethyl)-1-((7S, 8aR)-hexahydro-pyrrolo[2,1-c][1,4]oxazin-7-yl)-1,3-dihydro-benzoimidazol-2-ylidene)-cyanamide], the “reduced urinary protein excretion” value in assay [1] is roughly 64 mg/day. Besides, the inhibition constant Ki in assay [2] was roughly 0.23 nM. The compound further returned a Kb on human MR of roughly 2.5 nM.

Values taken from patent publication US7994164B2, “Mineralocorticoid receptor antagonists and methods of use” (Eli Lilly and Company, priority 2007, dated 2011).
